Experimental data taken from patent US7494991B2, “Rifamycin analogs and uses thereof” (ActivBiotics Pharma, LLC, priority 2003, dated 2009).
In brackets after ≈: the same amount, converted by molar mass.

Tests used:
C. trachomatis = assay: MIC assay, C. trachomatis; format: cell-based
S. aureus = assay: MIC assay, S. aureus; format: cell-based
S. pneumo. = assay: MIC assay, S. pneumo.; format: cell-based, S. pneumoniae
E. faecalis = assay: MIC assay, E. faecalis; format: cell-based
H. flu = assay: MIC assay, H. flu; format: cell-based, H. influenza
E. coli = assay: MIC assay, E. coli; format: cell-based

SMILES	MIC (μg/mL) C. trachomatis (C. trachomatis)	MIC (μg/mL) S. aureus (S. aureus)	MIC (μg/mL) S. pneumo. (S. pneumo.)	MIC (μg/mL) E. faecalis (E. faecalis)	MIC (μg/mL) H. flu (H. flu)	MIC (μg/mL) E. coli (E. coli)
CO[C@H]1/C=C/O[C@@]2(C)Oc3c(C)c(O)c4c(=O)c(c5oc6c7c(cc(O)c6nc-5c4c3C2=O)N(C)CCN7C)NC(=O)/C(C)=C\C=C\[C@H](C)[C@H](O)[C@@H](C)[C@@H](O)[C@@H](C)[C@H](OC(C)=O)[C@@H]1C [Compound 1]	6.4e-05 µg/mL (≈ 0.0723 nM)	0.008 µg/mL (≈ 9.04 nM)	0.00012 µg/mL (≈ 0.136 nM)	1 µg/mL (≈ 1130 nM)	1 µg/mL (≈ 1130 nM)	8 µg/mL (≈ 9040 nM)
CO[C@H]1/C=C/O[C@@]2(C)Oc3c(C)c(O)c4c(=O)c(c5oc6c7c(cc(O)c6nc-5c4c3C2=O)N(C)CCN7C)NC(=O)/C(C)=C\C=C\[C@H](C)[C@H](O)[C@@H](C)[C@@H](O)[C@@H](C)[C@H](O)[C@@H]1C [Compound 2]	0.001 µg/mL (≈ 1.19 nM)	0.5 µg/mL (≈ 593 nM)	0.06 µg/mL (≈ 71.2 nM)	1 µg/mL (≈ 1190 nM)	2 µg/mL (≈ 2370 nM)	8 µg/mL (≈ 9490 nM)
CO[C@H]1/C=C/O[C@@]2(C)Oc3c(C)c(O)c4c(=O)c(c5oc6c7c(cc(O)c6nc-5c4c3C2=O)N(C)CCCN7C)NC(=O)/C(C)=C\C=C\[C@H](C)[C@H](O)[C@@H](C)[C@@H](O)[C@@H](C)[C@H](OC(C)=O)[C@@H]1C [Compound 3]	6.4e-05 µg/mL (≈ 0.0712 nM)	0.06 µg/mL (≈ 66.7 nM)	0.008 µg/mL (≈ 8.9 nM)	4 µg/mL (≈ 4450 nM)	2 µg/mL (≈ 2220 nM)	>8 µg/mL
CO[C@H]1/C=C/O[C@@]2(C)Oc3c(C)c(O)c4c(=O)c(c5oc6c7c(cc(O)c6nc-5c4c3C2=O)N(C)CCCN7C)NC(=O)/C(C)=C\C=C\[C@H](C)[C@H](O)[C@@H](C)[C@@H](O)[C@@H](C)[C@H](O)[C@@H]1C [Compound 4]	0.001 µg/mL (≈ 1.17 nM)	0.12 µg/mL (≈ 140 nM)	0.00012 µg/mL (≈ 0.14 nM)	1 µg/mL (≈ 1170 nM)	2 µg/mL (≈ 2330 nM)	>8 µg/mL
